In patent publication US11547725B2, “Anti-cancer T cells and their preparation using coenzyme A” (UNIVERSITY HEALTH NETWORK, priority 2017, dated 2023):

How the values were obtained:
CD8+ T cells [1] = assay: Tc subset polarization of CD8+ T cells, intracellular cytokine staining by flow cytometry; format: cell-based, mouse; settings: for Tc22 polarization: CD8+ T cells activated three days in Tc22 conditions, compound vs vehicle (oligomycin 100 nm, etomoxir 40 μm, pantothenate 8 mM, CoA 2.5-3.5 mM)
CD8+ T cells [2] = assay: Stable isotope tracer analysis (SITA) with 13C-glucose, GC/MS; format: cell-based, mouse; settings: three days CoA or vehicle
Protocol: Seahorse was performed as previously described (11). ATP quantification was performed on day 3 polarized T cells using a commercial kit (Sigma) according to the recommended protocol. For SITA, CD8+ T cells activated for three days in the presence of vehicle or CoA were harvested, washed and incubated for 2.5 hours with U-13C6-glucose (Cambridge Isotopes). Cells were then washed and pellet was frozen in methanol. The cells were thawed on ice and lysed by sonication at 4° C. using a Diagenode Bioruptor (30s. on, 30s off, 5 mins). The resulting mixtures were spun down (15 mins 13000 rpm 4° C.) to remove the cellular debris, the resulting supernatants were transferred to clean microfuge tubes and the solvent was removed using a speed-vac at room temperature. The resulting pellets were stored at −70° C. until derivitization. The pellets were solubilized in 30 μL of pyridine containing methoxyamine(10 mg/mL; Sigma) and each sample was spiked with 1 μL of myristic acid-D27 (750 ng/mL in pyridine; Cambridge Isotopes). The samples were vortexed, sonicated, transferred to autoinjection vials and incubated at room temperature for 30 mins. Subsequent to this, 70 uL of N-tert-Butyldimethylsilyl-N-methyltrifluoroacetamide (MTBSTFA; Sigma) was added and the samples were incubated at 70° C. for 30 mins. […]
The data was analyzed using Agilent MSD-Chemstation interfaced to the NIST11 library. […]

CD8+ T cells [3] = assay: Cytokines quantified in supernatant (cytometric bead array or ELISA); format: cell-based, mouse; settings: three day culture, CD8+ T cells activated with vehicle or CoA
Protocol: (§1) Antibodies used for flow cytometry were purchased from eBioscience, Biolegend and BD Pharmingen. Antibody clones used were: CD4 (RM-45), CD8 (53-6.7), IL-22 (IL22JOP and Poly5164), IL-17 (eBio17B7), IFN-γ (XMG1.2) and TNF-α (MP6-XT22). Antibodies used for western blotting were HIF-1a (Caymen Chem-10006421) and β-actin (Sigma—A2066). For intracellular cytokine staining, cells were re-stimulated for 5-6 hours with Cell-Stimulation Cocktail (eBioscience) in the presence of Brefeldin A (eBioscience), followed by staining using Cytofix/Cytoperm (BD Pharmingen). Flow cytometry data was acquired on a FACSCanto II (BD) and analyzed using FlowJo software (Tree Star). Cytokines were quantified in the supernatant using LEGENDPLEX cytometric bead array (Biolegend) or by ELISA (eBioscience)
Oligomycin, Etomoxir, Diethyl succinate and Calcium-D Pantothenate were purchased from Sigma, and Coenzyme A Trilithium Salt (CoA) and HIF-inhibitor (CAS 934593-90-5) were purchased from EMD Millipore. Oligomycin (100 nm) was added to CD8+ T cells 24 hours after the start of activation, while Etomoxir (40 μm), Pantothenate (8 mM), Diethyl Succinate (14 mM) and HIF-Inhibitor (40 μM) were added at the start of activation. CoA was added at the start of activation unless otherwise indicated at a concentration of 2.5-3.5 mM depending on the lot.

[4] = tested on: dextran sulfate sodium (DSS) colitis; assay: DSS colitis model; format: in vivo, mouse; settings: 2.5% DSS in water 5 days; oral CoA 0.5 mg/mL in drinking water vs vehicle
Protocol: For DSS-colitis experiments, 8-12 week old female C57BL/6 mice were randomized into different cohorts and colitis was induced using 2.5% DSS (MP Bio) added to the drinking water of mice for 5 consecutive days. CoA (0.5 mg/mL) or vehicle control was added to the drinking water on day 0. On day 5, mice were switched to fresh water without any DSS added, supplemented with either CoA (0.5 mg/mL) or vehicle control.

CD4+ T cells [5] = assay: Th22 polarization of SMARTA CD4+ T cells, cytokine expression; format: cell-based, mouse; settings: CoA vs vehicle, non-polarizing or Th22 conditions
CD8+ T cells [6] = assay: Seahorse OCR / ECAR; format: cell-based, mouse
Protocol: Seahorse was performed as previously described (11). ATP quantification was performed on day 3 polarized T cells using a commercial kit (Sigma) according to the recommended protocol. For SITA, CD8+ T cells activated for three days in the presence of vehicle or CoA were harvested, washed and incubated for 2.5 hours with U-13C6-glucose (Cambridge Isotopes). Cells were then washed and pellet was frozen in methanol. The cells were thawed on ice and lysed by sonication at 4° C. using a Diagenode Bioruptor (30s. on, 30s off, 5 mins). The resulting mixtures were spun down (15 mins 13000 rpm 4° C.) to remove the cellular debris, the resulting supernatants were transferred to clean microfuge tubes and the solvent was removed using a speed-vac at room temperature. The resulting pellets were stored at −70° C. until derivitization. The pellets were solubilized in 30 μL of pyridine containing methoxyamine(10 mg/mL; Sigma) and each sample was spiked with 1 μL of myristic acid-D27 (750 ng/mL in pyridine; Cambridge Isotopes). The samples were vortexed, sonicated, transferred to autoinjection vials and incubated at room temperature for 30 mins. Subsequent to this, 70 uL of N-tert-Butyldimethylsilyl-N-methyltrifluoroacetamide (MTBSTFA; Sigma) was added and the samples were incubated at 70° C. for 30 mins. GC/MS analysis was performed using an Agilent 5975C GC/MS equipped with a DB-5MS+DG capillary column. 1 uL of sample was injected onto the GC column in splitless mode with an inlet temperature of 280° C. and the data was collected by electron impact set at 70 eV. Helium was used as the carrier gas with a flow rate of 1.55 mL/min. The quadrupole was set at 150° C. and the GC/MS interface at 285° C. The oven program for all metabolite analyses started at 60° C. held for 1 min, then increasing at a rate of 10° C./min until 320° C. Bake-out was at 320° C. for 10 mins and the sample data were acquired in scan mode (1-600 m/z).
To further characterize these observed differences in each Tc subset, we analyzed their respective utilization of glycolysis versus OXPHOS using the Seahorse Bioanalyzer. This method allows the concurrent measurement of the oxygen consumption rate (OCR—indicative of OXPHOS) and the extracellular acidification rate (ECAR—indicative of glycolysis) in real-time. […] Consistent with the increased ATP yield of oxidative metabolism compared to glycolysis, Tc22s had the highest amounts of intracellular ATP (FIG. 1F). We also observed metabolites involved in the TCA cycle and OXPHOS, particularly succinate, to be increased in Tc22s (FIG. 6).

HIF-1α = assay: Western blotting for HIF-1a; format: cell-based, mouse; settings: CD8+ T cells activated with vehicle or CoA
Protocol: as §1

CD4+ T cells [7] = assay: OCR, OCR:ECAR ratio and ATP production in CD4+ T cells; format: cell-based, mouse; settings: CD4+ T cells activated with vehicle or CoA
Protocol: (§2) Seahorse was performed as previously described (11). ATP quantification was performed on day 3 polarized T cells using a commercial kit (Sigma) according to the recommended protocol. For SITA, CD8+ T cells activated for three days in the presence of vehicle or CoA were harvested, washed and incubated for 2.5 hours with U-13C6-glucose (Cambridge Isotopes). Cells were then washed and pellet was frozen in methanol. The cells were thawed on ice and lysed by sonication at 4° C. using a Diagenode Bioruptor (30s. on, 30s off, 5 mins). The resulting mixtures were spun down (15 mins 13000 rpm 4° C.) to remove the cellular debris, the resulting supernatants were transferred to clean microfuge tubes and the solvent was removed using a speed-vac at room temperature. The resulting pellets were stored at −70° C. until derivitization. The pellets were solubilized in 30 μL of pyridine containing methoxyamine(10 mg/mL; Sigma) and each sample was spiked with 1 μL of myristic acid-D27 (750 ng/mL in pyridine; Cambridge Isotopes). The samples were vortexed, sonicated, transferred to autoinjection vials and incubated at room temperature for 30 mins. Subsequent to this, 70 uL of N-tert-Butyldimethylsilyl-N-methyltrifluoroacetamide (MTBSTFA; Sigma) was added and the samples were incubated at 70° C. for 30 mins. GC/MS analysis was performed using an Agilent 5975C GC/MS equipped with a DB-5MS+DG capillary column. […]

CD8+ T cells [8] = assay: ATP quantification (commercial kit); format: cell-based, mouse; settings: CD8+ T cells activated with CoA vs vehicle
Protocol: as §2

CD8+ T cells [9] = assay: RNA sequencing of CD8+ T cells activated with CoA or vehicle; format: cell-based, mouse; settings: RNA seq
Protocol: RNA was extracted from CD8+ T cells activated for three days in the presence of CoA or Vehicle using Qiagen RNEasy kit. Libraries were prepared using TruSeq Stranded Total RNA kit. Two hundred nanograms from RNA samples were ribosomal RNA depleted using Ribo-zero Gold rRNA beads, following purification the RNA was fragmented. The cleaved RNA fragments were copied into first strand cDNA using reverse transcriptase and random primers. This is followed by second strand cDNA synthesis using RNase H and DNA Polymerase I. A single “A” based were added and adapter ligated followed by purification and enrichment with PCR to create cDNA libraries. Final cDNA libraries were size validated using Agilent Bioanalyzer and concentration validated by qPCR. All libraries were normalized to 10 nM and pooled together. 10 pM of pooled libraries were loaded onto Illumina cBot for cluster generation. Clustered flow cell was then sequenced Pair-end 100 cycles V3 using Illumina HighSeq 2000 to achieve ˜30 million reads per sample.
The Tophat (2.0.8b) software suite with Bowtie (2.0.5) was used to align reads to the Mus musculus mm10 mouse genome (igenome). […] The cufflinks (2.2.1) software suite was used to quantify alignments. Cuffquant was used to quantify individual sample alignments and Cuffnorm was used to normalize quantified data for each group of biological replicates. […]

human CD8+ cells = assay: Human T cell Tc22 polarization, intracellular cytokines by flow cytometry; format: cell-based; settings: human naive T cells, Tc22 conditions, pantothenate 8 mM on day 0, five days
Protocol: Peripheral blood mononuclear cells were obtained from healthy donors following institutional review board approval. Written informed consent was obtained from all donors who provided the samples. PBMCs were magnetically sorted for naïve T cells (Miltenyi Biotec) and seeded into a 96-well plate previously coated with 5 μg/mL anti-CD3 (eBioscience, clone OKT3). To induce Tc22 polarization, the following antibodies and cytokines were added to culture: 1 μg/mL anti-CD28 (eBioscience, clone CD28.2), 5 μg/mL anti-IFNγ (BioLegend, clone B27), 5 μg/mL anti-IL-4 (BioLegend, clone 8D4-8), 5 μg/mL anti-TGFβ (eBioscience, clone 1D11.16.8), 20 ng/mL IL-6, 10 ng/mL IL-21, 10 ng/mL IL-23, 40 ng/mL TNF-α (All from BioLegend) and 2 ng/mL FICZ. Pantothenate (8 mM) or vehicle control was also added on day 0. Five days later, cells were stimulated with PMA/ionomycin+Brefeldin for 5-6 hours. Cells were then stained and analyzed for intracellular cytokines by flow cytometry.

[10] = re-stimulated 48 hours with anti-CD3 with vehicle or CoA
[11] = CD8+ T cells activated with CoA vs vehicle

## CC(C)(COP(=O)(O)OP(=O)(O)OC[C@H]1O[C@@H](n2cnc3c(N)ncnc32)[C@H](O)[C@@H]1OP(=O)(O)O)[C@@H](O)C(=O)NCCC(=O)NCCS.[Li].[Li].[Li] [CoA, Coenzyme A Trilithium Salt]
CD8+ T cells [1]
  Tc22 polarization: greatly enhanced polarization
CD8+ T cells [1]; CD8+ T cells activated with CoA alone, absence of polarizing cytokines
  Cytokine expression in non-polarizing conditions: skewed primarily towards an IL-22^+ IL-17^− IFNγ^− population
CD8+ T cells [1]; CoA with anti IL-6 (10 ug/mL), three days
  Tc22 induction in presence of IL-6 neutralizing antibody: retained the ability to induce Tc22s
CD8+ T cells [1]; platebound anti-CD3 and soluble anti CD28, three days, CoA added 24 hours after start, non-polarizing or Tc22 conditions
  Tc22 polarization in APC-free system: induced and enhanced Tc22 polarization
CD8+ T cells [1]; [10]
  IL-22 production in previously activated CD8+ T cells: able to induce IL-22 production
CD8+ T cells [2]
  Total intracellular pools of TCA intermediates: increased total intracellular pools of many of the TCA intermediates
CD8+ T cells [2]; then 2.5 hours 13C glucose
  Incorporation of 13C label into TCA metabolites: enhanced incorporation of the ^13C label into TCA metabolites
CD8+ T cells [3]
  Cytokine profile in supernatants: primarily up-regulate IL-22
[4]
  Disease severity (% weight loss): decrease in disease severity
CD4+ T cells [5]
  Th22 polarization: induced and enhanced Th22 polarization
CD8+ T cells [6]; [11]
  Basal ECAR: lower basal ECAR
  Basal OCR: higher basal OCR
  OCR:ECAR ratio: high OCR:ECAR ratio
CD8+ T cells [6]; [10]
  Oxidative phenotype (OCR, ECAR, OCR:ECAR, ATP) in previously activated CD8+ T cells: promote an oxidative phenotype
HIF-1α
  Levels of HIF-1α: substantially increased levels of HIF-1α
CD4+ T cells [7]
  ATP production in CD4+ T cells: enhanced ATP production
  Metabolic shift (OCR, OCR:ECAR ratio) in CD4+ T cells: metabolic shift towards OXPHOS
CD8+ T cells [8]
  Intracellular levels of ATP: increased intracellular levels of ATP
CD8+ T cells [9]; CoA alone vs vehicle, three days
  Expression of genes up-regulated by Tc22 polarizing cytokines (Tc22 signature): strongly up-regulated
CD8+ T cells [9]; CoA vs vehicle
  Gene expression altered by treatment (GO term analysis): primarily altered the expression of immune system genes and not metabolic genes

## CCOC(=O)[C@@]1(CCCCCCOc2ccc(Cl)cc2)CO1 [etomoxir, Etomoxir]
CD8+ T cells [1]
  Tc22 polarization: had no effect on Tc22 polarization

## CC[C@H]1/C=C/C=C/C[C@@H](C)[C@H](O)[C@@](C)(O)C(=O)[C@@H](C)[C@H](O)[C@@H](C)C(=O)[C@@H](C)[C@H](O)[C@@H](C)/C=C/C(=O)O[C@@H]2[C@H](C)[C@H](CC1)O[C@]1(CC[C@H](C)[C@H](C[C@@H](C)O)O1)[C@H]2C [oligomycin, Oligomycin]
CD8+ T cells [1]
  Tc22 polarization: decrease in Tc22 polarization
CD8+ T cells [1]; Tc1 conditions, oligomycin 100 nm added 24 hours after start of activation
  Tc1 polarization: did enhance Tc1 polarization
CD8+ T cells [1]; Tc17 conditions, oligomycin 100 nm added 24 hours after start of activation
  Tc17 polarization: did not affect Tc17 polarization

## CC(C)(CO)[C@@H](O)C(=O)NCCC(=O)O [pantothenate, Calcium-D Pantothenate]
CD8+ T cells [1]
  Tc22 polarization: enhanced polarization
Human CD8+ cells
  Tc22 polarization, human CD8+ cells: enhanced polarization

## CCOC(=O)CCC(=O)OCC [succinate, Diethyl succinate]
CD8+ T cells [1]; CD8+ T cells activated three days with exogenous succinate (diethyl succinate 14 mM)
  IL-22 production: enhanced IL-22 production
